Experimental data as given in publication PMC12314110, “Evaluation of Potential Effects of CYP3A Inhibition and CYP3A Induction on the Pharmacokinetics of Fruquintinib in Healthy Subjects” (Clinical Pharmacology in Drug Development, 2025).

Legend:
[1] = Part A: PK of single-dose fruquintinib alone and with itraconazole (CYP3A inhibition); format: in vivo, human; settings: for AUC(0-inf) / AUC(0-t) / Tmax / Cmax / half-life / t1/2: fruquintinib in plasma; for AUC(0-inf) / AUC(0-t) / Tmax / Cmax / half-life / t1/2 / CL/F (apparent oral clearance): Part A, n = 14; for AUC(0-inf) / AUC(0-t) / Cmax / half-life / t1/2 / CL/F (apparent oral clearance): arithmetic mean (SD); for Tmax: median (minimum‐maximum); for half-life: plasma; for CL/F (apparent oral clearance): fruquintinib
Source text: (§1) This was a single‐center, open‐label, 2‐part (Part A and Part B), 2‐period, fixed‐sequence study conducted in healthy male and female subjects. Parts A and B evaluated the effect of the CYP3A inhibitor itraconazole and the CYP3A inducer rifampin on the PK profile of fruquintinib, respectively. Each part consisted of a screening phase, a treatment phase (Period 1 and Period 2), and an end‐of‐study (EOS) phase. Screening occurred within 21 days before the first study drug administration. There was at least a 14‐day washout of fruquintinib between treatment periods. PK samples were collected before dosing and over 168 hours following the fruquintinib dose in Part A (with itraconazole) and Part B (with rifampin). Part A and Part B were enrolled independently.
In Part A, subjects were administered fruquintinib alone in Treatment Period 1 and in combination with itraconazole in Treatment Period 2. Study Day 1 was considered the start of Treatment Period 1, and Study Day 15 was considered the start of Treatment Period 2. On Study Day 1, subjects received a single dose of fruquintinib 5 mg by mouth under fasted conditions (subjects fasted for at least 10 hours before fruquintinib dosing and 4 hours after), and on Study Day 19 subjects received a second single dose of fruquintinib 5 mg by mouth under fasted conditions, alongside itraconazole. On Study Day 15, subjects began a regimen of itraconazole 200 mg by mouth twice a day, followed by once daily dosing on Study Days 16‐25. A dose of 200 mg was selected, with a loading dose as part of a 5‐day lead‐in (twice daily for 1 day, once daily for 4 days) to achieve appropriate inhibition of CYP3A before dosing with fruquintinib.[10] Once‐daily dosing of itraconazole for an additional 5 days throughout the fruquintinib PK sampling period was continued to maintain CYP3A inhibition.[11]
As itraconazole oral bioavailability is maximal when the capsules are taken immediately after a full meal,[12] it was administered under fed conditions except when coadministered with fruquintinib on Study Day 19. Itraconazole doses were administered 30 minutes after the start of breakfast on Study Days 15‐18 and Study Days 20‐25. On Study Day 19, subjects received both treatments under fasted conditions, and itraconazole was administered 1 hour before administration of a single dose of fruquintinib 5 mg by mouth. Subjects were discharged after completion of EOS procedures on Study Day 26 or at early withdrawal.
(§2) Blood samples for determination of fruquintinib and metabolite M11 plasma concentrations were collected before dosing and at 0.5, 1, 1.5, 2, 3, 4, 6, 8, 12, 24, 36, 48, 72, 96, 120, 144, and 168 hours after fruquintinib dosing. Plasma samples were analyzed by LabCorp Bioanalytical (Indianapolis, IN) using a validated liquid chromatography with tandem mass spectrometry assay method with an analytical range of 1.00 ng/mL (lower limit of quantitation) to 750 ng/mL (upper limit of quantitation) for both fruquintinib and M11.[6] Interrun variability was 6.3% or less and 13.8% or less for fruquintinib and M11, respectively. Quality control samples at 4 concentrations (3, 30, 300, and 600 ng/mL) were assayed along with study samples, and the bias quality control sample concentrations deviated by ±2.0% and ±2.7% from the nominal concentrations for fruquintinib and M11, respectively.
PK parameters were determined by noncompartmental analysis and included maximum plasma concentration (Cmax); time to reach Cmax (tmax); area under the plasma concentration‐time curve (AUC) from time 0 to the time of the last measurable concentration (AUC0‐t); AUC from time 0 to infinity (AUC0‐inf); half‐life (t1/2); and the metabolite‐to‐parent ratios for Cmax, AUC0‐t, and AUC0‐inf. Apparent oral clearance and volume of distribution were also estimated for fruquintinib. […]

[2] = Part B: PK of single-dose fruquintinib alone and with rifampin (CYP3A induction); format: in vivo, human; settings: for AUC(0-inf) / AUC(0-t) / Cmax / half-life / Tmax / t1/2: fruquintinib in plasma; for AUC(0-inf) / AUC(0-t) / Cmax / half-life / Tmax / t1/2 / CL/F (apparent oral clearance): Part B; for AUC(0-inf) / AUC(0-t) / Cmax / half-life / t1/2 / CL/F (apparent oral clearance): arithmetic mean (SD); for half-life / Tmax: plasma; for Tmax: median (minimum‐maximum), read-out: tmax; for CL/F (apparent oral clearance): fruquintinib
Source text: as §1
In Part B, subjects were administered fruquintinib alone in Treatment Period 1 and in combination with rifampin in Treatment Period 2. Study Day 1 was considered as the start of Treatment Period 1, and Study Day 8 was considered as the start of Treatment Period 2. On Study Day 1, a single dose of fruquintinib 5 mg by mouth was administered under fasted conditions, and on Study Day 15, a single dose of fruquintinib 5 mg was administered by mouth under fasted conditions alongside rifampin. Starting on Study Day 8, rifampin 600 mg was dosed by mouth once daily for 14 consecutive days, 7 days before fruquintinib dosing and 6 days after fruquintinib dosing, to ensure that induction was maintained throughout the PK sampling period. Subjects therefore received rifampin from Study Day 8 to Study Day 21. Absorption of rifampin is reduced by approximately 30% when the drug is ingested with food.[13] Therefore, rifampin was administered at least 1 hour before breakfast when given alone and under fasted conditions when administered with fruquintinib. Breakfast was given at least 1 hour after the rifampin doses on Study Days 8‐14 and Study Days 16‐21. On Study Day 15, subjects received both treatments under fasted conditions, and rifampin was administered 1hour before administration of a single dose of fruquintinib 5 mg by mouth. Subjects were discharged after completion of EOS procedures on Study Day 22 or at early withdrawal.
as §2
PK parameters were determined by noncompartmental analysis and included maximum plasma concentration (Cmax); time to reach Cmax (tmax); area under the plasma concentration‐time curve (AUC) from time 0 to the time of the last measurable concentration (AUC0‐t); AUC from time 0 to infinity (AUC0‐inf); half‐life (t1/2); and the metabolite‐to‐parent ratios for Cmax, AUC0‐t, and AUC0‐inf. Apparent oral clearance and volume of distribution were also estimated for fruquintinib.
For Part A, the effect of itraconazole based on the PK parameters of fruquintinib was evaluated using a linear mixed‐effect model with treatment (ie, fruquintinib with itraconazole [test] and fruquintinib alone [reference]) as fixed effects and subject as a random effect. A similar inferential analysis was performed for Part B, but fruquintinib with rifampin was the test group. […]

P‐gp = settings: no reference given; cited from earlier work
[3] = both sexes, human, oral, fruquintinib 5 mg + itraconazole 200 mg
[4] = both sexes, human, oral, fruquintinib alone 5 mg
[5] = fruquintinib 5 mg + itraconazole 200 mg
[6] = both sexes, human, oral, fruquintinib 5 mg + rifampin 600 mg, n = 13
[7] = both sexes, human, oral, fruquintinib alone 5 mg, n = 13
[8] = fruquintinib 5 mg + rifampin 600 mg, n = 13
[9] = fruquintinib alone 5 mg, n = 13

AUC(0-inf) [1, 3]: 6460 ng·h/mL
AUC(0-t) [1, 3]: 6040 ng·h/mL
Tmax [1, 3]: 4 h
AUC(0-inf) [1, 4]: 5960 ng·h/mL
AUC(0-t) [1, 4]: 5730 ng·h/mL
Tmax [1, 4]: 2 h
Cmax ([1]; both sexes, human, oral, fruquintinib alone, single 5 mg by mouth, fasted, read-out: Cmax): 133 ng/mL
half-life ([1]; both sexes, human, oral, 5 mg, fruquintinib alone 5 mg): ~34 h
half-life [1, 3]: ~41 h
increase of fruquintinib AUCs ([1]; coadministration with itraconazole versus fruquintinib alone): approximately 10%
delay of median tmax of fruquintinib ([1]; following coadministration of itraconazole): 2 h
Cmax [1, 5]: 122 (22.8) ng/mL
t1/2 [1, 5]: 41.4 (5.96) hour
t1/2 ([1]; fruquintinib alone 5 mg): 33.9 (6.96) hour
CL/F (apparent oral clearance) [1, 5]: 13.3 (2.59) mL/min
CL/F (apparent oral clearance) ([1]; fruquintinib alone 5 mg): 14.9 (4.14) mL/min
AUC(0-inf) [2, 6]: 2070 ng·h/mL
AUC(0-t) [2, 6]: 2020 ng·h/mL
Cmax ([2]; both sexes, human, oral, fruquintinib 5 mg + rifampin 600 mg, n = 13, read-out: Cmax): 108 ng/mL
AUC(0-inf) [2, 7]: 5890 ng·h/mL
AUC(0-t) [2, 7]: 5640 ng·h/mL
half-life ([2]; both sexes, human, oral, 5 mg, fruquintinib alone 5 mg, n = 13): ~34 h
Tmax ([2]; both sexes, human, oral, 5 mg, fruquintinib alone 5 mg, n = 14): 3.33 h
half-life [2, 6]: ~14 h
Tmax [2, 6]: 3 h
reduction of fruquintinib AUCs (AUC0‐t and AUC0‐inf) ([2]; coadministration with rifampin versus fruquintinib alone): 65%
t1/2 [2, 8]: 14.0 (3.06) hour
t1/2 [2, 9]: 33.9 (7.76) hour
Cmax ([2]; fruquintinib alone, single 5 mg by mouth, fasted, n = 14): 123 (25.5) ng/mL
CL/F (apparent oral clearance) [2, 8]: 41.9 (7.46) mL/min
CL/F (apparent oral clearance) [2, 9]: 14.5 (2.22) mL/min
SMILES: CNC(=O)c1c(C)oc2cc(Oc3ncnc4cc(OC)c(OC)cc34)ccc12 [Fruquintinib]
P‐gp substrate (P‐gp): not a P‐gp substrate
